Experimental findings from patent publication US12678501B2, “Modulating permeability of the blood cerebrospinal fluid barrier” (MEMORIAL SLOAN-KETTERING CANCER CENTER, priority 2015, dated 2026) are described below.

Assay [1] relates to MDA231-LeptoM cells. Briefly: Leptomeningeal metastasis model, MDA231-LeptoM cells into cisterna magna, BLI. Type of assay: in vivo, mouse. Particulars: vs vehicle; for tumor growth within the leptomeninges (bioluminescent imaging): 2,000 MDA LeptoM cells into cisterna magna. The procedure: (§1) FIG. 11A-11C. C3aR as a therapeutic target in leptomeningeal metastasis. (A) 2,000 MDA231-LeptoM cells were introduced into the cisterna magna on day 0. Mice were treated with 10 mg/kg C3aR agonist (Ag), 10 mg/kg antagonist (Ant) or vehicle (Veh) I.P. twice weekly, tumor cell growth was monitored by BLI. n=10 mice per group. ****p<0.0001 (B) Survival analysis of mice treated in (A). (C) 2,000 MDA231-LeptoM, PC9-LeptoM, HCC1954-LeptoM or LCC-LeptoM cells were introduced into the CSF on day 0 and treated with Veh or Ant as described in (A). n=10 mice per group. BLI on day 14 is illustrated. *p<0.05; **p<0.01; *** p<0.001.
In light of the cancer cell dependence on C3 for growth within the leptomeningeal space, as well as C3aR's importance in maintenance of CP barrier function, we elected to assay C3aR antagonist as well as agonists in models of leptomeningeal metastasis. First, 2,000 MDA LeptoM were injected into the cisterna magna of recipient mice. Next, treatment with either vehicle, C3aR agonist or antagonist was initiated. Tumor growth was followed with bioluminescent imaging FIG. 11A.
(§2) Cells corresponding to each of these models were inoculated into the leptomeningeal space of recipient mice on Day 0. Daily systemic treatment with C3aR antagonist SB290157 began on Day 1. Bioluminescent imaging to quantitate tumor cell growth is shown for each of the models, FIG. 11C. […] In this approach, maintenance of B-CSF-B integrity inhibits cancer cell survival by inhibiting cancer cell access to plasma components, including protein, growth factors and metabolic intermediates.

In assay [2] the test system is PC9-LeptoM cells. Briefly: Leptomeningeal metastasis model, PC9-LeptoM cells, BLI. Type of assay: in vivo, mouse. Particulars: systemic treatment from Day 1, BLI on day 14, vs vehicle. The procedure:
as §1, §2

The test system of assay [3] is LLC-LeptoM cells. Briefly: Leptomeningeal metastasis model, LLC-LeptoM cells, BLI. The class given is in vivo, mouse. As to conditions: systemic treatment from Day 1, BLI on day 14, vs vehicle. As for the experimental part: as §1, §2
Assay [4] concerns HCC1954-LeptoM cells. Briefly: Leptomeningeal metastasis model, HCC1954-LeptoM cells, BLI. The class given is in vivo, mouse. Particulars: systemic treatment from Day 1, BLI on day 14, vs vehicle. The procedure: as §1, §2
The test system of assay [5] is human choroid plexus epithelial cells (HuCPEpi). Briefly: Trans-epithelial electrical resistance (TEER) in in vitro model of B-CSF-B. Type of assay: cell-based. As to conditions: HuCPEpithelial cells on laminin-coated transwells, after addition of recombinant C3a. From the text:
(§3) FIG. 7A-7F. C3aR activation alters B-CSF-barrier integrity. (A) Immunofluorescence of mouse choroid plexus for C3aR (red) and the apically expressed SPAK (green). (B) Trans-epithelial resistance in response to C3a in an in vitro model of B-CSF-B employing human choroid plexus epithelial cells (HuCPEpi). (C) Conditioned medium from MDA231 Parental cells (green) supplemented with recombinant mouse C3a (open circles) or vehicle (closed circles) was used to treat the monolayer prior to TEER measurements. (D) Conditioned medium from MDA231 LeptoM cells was not treated with antibody (closed circle), or immunodepleted with anti-C3 (open circles) or IgG control (black squares) prior to TEER measurements. (E) Mice (C3aR^+/+ or ^−/−) were parenterally pretreated with recombinant mouse C3a or vehicle prior to intracardiac infusion of mixed fluorescently labeled dextrans. 30 minutes later, CSF and blood were sampled and analyzed by fluorimetry. In the bar graphs, for each dextran size, fluorescence in animals treated with rmC3a is represented by the bar on the right (vehicle represented by the bar on the left). (F) Mouse choroid plexus treated with C3a or vehicle for 2 hours prior to fixation and staining for ZO-1 and Claudin.
To address the hypothesis that C3aR might function similarly in the choroid plexus, we first established the presence of C3aR on choroid plexus epithelium (FIG. 7A). […]

Assay [6] deals with choroid plexus epithelial cells. Briefly: Tight junction staining (ZO-1, claudin immunofluorescence) of choroid plexus. Particulars: mouse choroid plexus treated 2 hours prior to fixation.
From the text: as §3, with “(F) Mouse choroid plexus treated with C3a or vehicle for 2 hours prior to fixation and staining for ZO-1 and Claudin.” left out
(§4) The passage of larger molecules was assessed through the use of fluorescently labeled Dextran passage in vivo. […] Thirty minutes after this treatment, CSF was sampled by cisternal tap, and presence of the derivatized dextran was assayed by fluorescence. […]

In assay [7] the target is T1, C3aR (Mus musculus, UniProt O09047).
T1 construct: from tissue; host or cells: living mice (in vivo)
T1 sequence (O09047 1-477): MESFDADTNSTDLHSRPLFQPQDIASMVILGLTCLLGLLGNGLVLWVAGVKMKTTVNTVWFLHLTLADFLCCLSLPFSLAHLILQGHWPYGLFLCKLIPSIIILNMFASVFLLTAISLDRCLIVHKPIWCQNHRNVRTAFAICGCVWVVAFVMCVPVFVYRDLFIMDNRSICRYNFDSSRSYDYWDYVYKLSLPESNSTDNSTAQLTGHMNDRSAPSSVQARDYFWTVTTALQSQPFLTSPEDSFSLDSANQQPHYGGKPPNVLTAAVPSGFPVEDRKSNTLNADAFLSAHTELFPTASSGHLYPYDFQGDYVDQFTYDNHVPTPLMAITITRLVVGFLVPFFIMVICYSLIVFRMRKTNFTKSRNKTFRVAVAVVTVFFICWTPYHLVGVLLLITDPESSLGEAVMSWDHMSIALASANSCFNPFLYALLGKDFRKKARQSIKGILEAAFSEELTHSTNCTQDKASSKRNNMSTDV
Description: Passage of fluorescently labeled dextrans from blood to CSF in vivo. Particulars: dextrans of 40 kDa and smaller; CSF sampled 30 minutes after intracardiac dextran; C3aR-dependent (wild type vs knockout mice).
From the text: as §3, with “(F) Mouse choroid plexus treated with C3a or vehicle for 2 hours prior to fixation and staining for ZO-1 and Claudin.” left out
as §4

Assay [8] in a line: Amphiregulin ELISA in CSF and plasma after parenteral C3a. Type of assay: in vivo. As to conditions: mouse models, after parenteral administration. The source says: FIG. 10A-10D. C3 conditioned CSF by opening the blood-CSF-barrier. (A) Commercial dot-blot array was employed to measure proteins present in CSF of two patients without leptomeningeal metastasis, who later developed leptomeningeal metastasis. […] (B) LLC-LeptoM cells instilled into the cisterna magna of C3aR wild-type (^+/+) or knock-out (^−/−) syngenic mice. Tumor growth was monitored by BLI. (C) ELISA for amphiregulin of CSF from suspected of leptomeningeal metastasis. Final clinical diagnosis is indicated. (D) Mice were parenterally pretreated with recombinant mouse […] or vehicle (green) as described in FIG. 7E. Amphiregulin was measured by ELISA in CSF and plasma.
Leptomeningeal metastasis alters the composition of the CSF (FIG. 10A), including the growth factor amphiregulin (FIG. 10C). Cancer cell growth within the leptomeningeal space is improved in the presence of the C3aR in our models of leptomeningeal metastasis (FIG. 10B) after parenteral administration of C3a, serum amphiregulin is elevated within the CSF in mouse models.

Turning to `O=C(NC1CCN(C(=O)CCc2cccnc2)CC1)C(c1ccccc1)C1CCCCC1` (stereo not drawn) [C3aR agonist, α-cyclohexyl-N-[1-[1-oxo-3-(3-pyridinyl)propyl]-4-piperidinyl]-benzeneacetamide], the “tumor growth within the leptomeninges (bioluminescent imaging)” value in assay [1] (10 mg/kg I.P. twice weekly) is given as “accelerated”.
Consider `N=C(N)NCCC[C@H](NC(=O)COCC(c1ccccc1)c1ccccc1)C(=O)O` [SB290157, N2-[2-(2,2-diphenylethoxy)acetyl]-L-arginine, 2,2,2-trifluoroacetate], for which the “leptomeningeal tumor growth (BLI)” value is “less leptomeningeal tumor growth” in assay [2]; “less leptomeningeal tumor growth” in assay [1] (MDA231 model, systemic treatment from Day 1, BLI on day 14); “less leptomeningeal tumor growth” in assay [3]; “less leptomeningeal tumor growth” in assay [4]. The “tumor growth within the leptomeninges (bioluminescent imaging)” value in assay [1] (10 mg/kg I.P. twice weekly) is given as “slowed”. Moreover, in assay [1] (MDA LeptoM model, 10 mg/kg I.P. twice weekly), the survival entry is “survival benefit”.
On to “recombinant C3a: recombinant C3a, hydrolysis fragment of complement C3, ligand of the C3aR receptor”, for which the “resistance across the monolayer (TEER)” value in assay [5] is reported as “reduced”. Moreover, in assay [6], the “tight junctions between choroid plexus epithelial cells (claudin immunofluorescence)” value is “disorganization of tight junctions”. For the same compound, the “passage of dextrans from blood to CSF” value in assay [7] is “increased”. Also, in assay [8], the “amphiregulin within the CSF” value is on record as “elevated”.
